EP2758401B1 (Bayer Intellectual Property GmbH, priority 2011, dated 2013)
Counter-ions that a name gives are not always drawn.

Columns and labels:
MKNK1 [1] = target: T1, MKNK1 (Homo sapiens, UniProt Q9BUB5, T385D); test: MKNK1 kinase assay (TR-FRET); assay type: biochemical; details: ATP final conc. 10 µM; 15 min pre-incubation; reaction time 45 min at 22°C
T1 construct: GST (N); purchased Carna Biosciences 02-145; host or cells: insect cells (baculovirus expression system)
Description: MKNK1-inhibitory activity of compounds of the present invention was quantified employing the MKNK1 TR-FRET assay as described in the following paragraphs.
As substrate for the kinase reaction the biotinylated peptide biotin-Ahx-[…] (C-terminus in amide form) was used which can be purchased e.g. form the company Biosyntan (Berlin-Buch, Germany).
For the assay 50 nL of a 100fold concentrated solution of the test compound in DMSO was pipetted into a black low volume 384well microtiter plate (Greiner Bio-One, Frickenhausen, Germany), 2 µL of a solution of MKNK1 in aqueous assay buffer [50 mM HEPES pH 7.5, 5 mM magnesium chloride, 1.0 mM dithiothreitol, 0.005% (v/v) Nonidet-P40 (Sigma)] was added and the mixture was incubated for 15 min at 22°C to allow pre-binding of the test compounds to the enzyme before the start of the kinase reaction. Then the kinase reaction was started by the addition of 3 µL of a solution of adenosine-tri-phosphate (ATP, 16.7 µM => final conc. in the 5 µL assay volume is 10 µM) and substrate (0.1 µM => final conc. in the 5 µL assay volume is 0.06 µM) in assay buffer and the resulting mixture was incubated for a reaction time of 45 min at 22°C.
The resulting mixture was incubated for 1 h at 22°C to allow the formation of complex between the phosphorylated biotinylated peptide and the detection reagents. Subsequently the amount of phosphorylated substrate was evaluated by measurement of the resonance energy transfer from the Eu-chelate to the streptavidine-XL. Therefore, the fluorescence emissions at 620 nm and 665 nm after excitation at 350 nm were measured in a TR-FRET reader, e.g. a Rubystar (BMG Labtechnologies, Offenburg, Germany) or a Viewlux (Perkin-Elmer). The ratio of the emissions at 665 nm and at […] was taken as the measure for the amount of phosphorylated substrate. The data were normalised (enzyme reaction without inhibitor = 0 % inhibition, all other assay components but no enzyme = 100 % inhibition). […] Table 1: MKNK1 IC50s

MKNK1 [2] = target: T1, MKNK1; test: MKNK1 kinase high ATP assay (TR-FRET); assay type: biochemical; details: ATP final conc. 2 mM; 15 min pre-incubation; reaction time 30 min at 22°C
Description: MKNK1-inhibitory activity at high ATP of compounds of the present invention after their preincubation with MKNK1 was quantified employing the TR-FRET-based MKNK1 high ATP assay as described in the following paragraphs.
As substrate for the kinase reaction the biotinylated peptide biotin-Ahx-[…] (C-terminus in amide form) was used, which can be purchased e.g. from the company Biosyntan (Berlin-Buch, Germany).
For the assay 50 nL of a 100fold concentrated solution of the test compound in DMSO was pipetted into a black low volume 384well microtiter plate (Greiner Bio-One, Frickenhausen, Germany), 2 µL of a solution of MKNK1 in aqueous assay buffer [50 mM HEPES pH 7.5, 5 mM magnesium chloride, 1.0 mM dithiothreitol, 0.005% (v/v) Nonidet-P40 (Sigma)] was added and the mixture was incubated for 15 min at 22°C to allow pre-binding of the test compounds to the enzyme before the start of the kinase reaction. Then the kinase reaction was started by the addition of 3 µL of a solution of adenosine-tri-phosphate (ATP, 3.3 mM => final conc. in the 5 µL assay volume is 2 mM) and substrate (0.1 µM => final conc. in the 5 µL assay volume is 0.06 µM) in assay buffer and the resulting mixture was incubated for a reaction time of 30 min at 22°C. The concentration of MKNK1 was adjusted depending of the activity of the enzyme lot and was chosen appropriate to have the assay in the linear range, typical concentrations were in the range of 0.003 µg/mL. The reaction was stopped by the addition of 5 µL of a solution of TR-FRET detection reagents (5 nM streptavidine-XL665 [Cisbio Bioassays, Codolet, France] and 1 nM anti-ribosomal protein S6 (pSer236)-antibody from Invitrogen [# 44921G] and 1 nM LANCE EU-W1024 labeled ProteinG [Perkin-Elmer, product no. AD0071]) in an aqueous EDTA-solution (100 mM EDTA, 0.1 % (w/v) bovine serum albumin in 50 mM HEPES pH 7.5).
The resulting mixture was incubated for 1 h at 22°C to allow the formation of complex between the phosphorylated biotinylated peptide and the detection reagents. Subsequently the amount of phosphorylated substrate was evaluated by measurement of the resonance energy transfer from the Eu-chelate to the streptavidine-XL. Therefore, the fluorescence emissions at 620 nm and 665 nm after excitation at 350 nm were measured in a TR-FRET reader, e.g. a Rubystar (BMG Labtechnologies, Offenburg, Germany) or a Viewlux (Perkin-Elmer). The ratio of the emissions at 665 nm and at […] was taken as the measure for the amount of phosphorylated substrate. The data were normalised (enzyme reaction without inhibitor = 0 % inhibition, all other assay components but no enzyme = 100 % inhibition).

T1 sequence (Q9BUB5 1-424 isoform Q9BUB5-2 T344D): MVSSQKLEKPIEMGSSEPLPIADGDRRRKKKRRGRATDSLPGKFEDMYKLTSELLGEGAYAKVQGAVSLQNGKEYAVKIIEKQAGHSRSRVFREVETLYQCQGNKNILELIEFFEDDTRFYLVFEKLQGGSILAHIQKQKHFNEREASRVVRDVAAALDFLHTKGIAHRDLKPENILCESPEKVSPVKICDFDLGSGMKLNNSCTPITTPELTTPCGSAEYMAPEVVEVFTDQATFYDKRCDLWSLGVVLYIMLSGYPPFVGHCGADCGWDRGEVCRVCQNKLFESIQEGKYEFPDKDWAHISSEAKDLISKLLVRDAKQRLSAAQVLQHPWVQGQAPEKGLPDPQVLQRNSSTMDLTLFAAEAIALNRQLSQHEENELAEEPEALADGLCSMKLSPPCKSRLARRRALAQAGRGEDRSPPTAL

| SMILES | IC50 (MKNK1 [1]) | IC50 (MKNK1 [2]) |
| --- | --- | --- |
| NCCCOc1ccc2ncc(-c3cc4ccccc4o3)n2n1 [Example 11, 3-{[3-(1-Benzofuran-2-yl)imidazo[1,2-b]pyridazin-6-yl]oxy}propan-1-amine] | 8 nM | 24 nM |
| NCCOc1ccc2ncc(-c3cc4ccccc4o3)n2n1 [Example 12, 2-{[3-(1-Benzofuran-2-yl)imidazo[1,2-b]pyridazin-6-yl]oxy}ethanamine] | 10 nM | 27 nM |
| CC(C)(N)CCOc1ccc2ncc(-c3cc4ccccc4o3)n2n1 [Example 14, 4-{[3-(1-Benzofuran-2-yl)imidazo[1,2-b]pyridazin-6-yl]oxy}-2-methylbutan-2-amine] | 20 nM | 39 nM |
| C[C@H](CN)Oc1ccc2ncc(-c3cc4cc(Cl)ccc4o3)n2n1 [Example 15, (2R)-2-{[3-(5-Chloro-1-benzofuran-2-yl)imidazo[1,2-b]pyridazin-6-yl]oxy}-propan-1-amine] | 36 nM | 197 nM |
| NC[C@H](Oc1ccc2ncc(-c3cc4ccccc4o3)n2n1)c1ccccc1 [Example 16, (2R)-2-{[3-(1-Benzofuran-2-yl)imidazo[1,2-b]pyridazin-6-yl]oxy}-2-phenylethan-amine] | 26 nM | 49 nM |
| N[C@H](COc1ccc2ncc(-c3cc4ccccc4o3)n2n1)c1ccccc1 [Example 17, (1S)-2-{[3-(1-Benzofuran-2-yl)imidazo[1,2-b]pyridazin-6-yl]oxy}-1-phenylethan-amine] | 6 nM | 10 nM |
| N[C@@H](COc1ccc2ncc(-c3cc4ccccc4o3)n2n1)c1ccccc1 [Example 18, (1R)-2-{[3-(1-Benzofuran-2-yl)imidazo[1,2-b]pyridazin-6-yl]oxy}-1-phenyl-ethanamine] | 22 nM | 33 nM |
| N[C@H](COc1ccc2ncc(-c3cc4cc(Cl)ccc4o3)n2n1)c1ccccc1 [Example 19, (1S)-2-{[3-(5-Chloro-1-benzofuran-2-yl)imidazo[1,2-b]pyridazin-6-yl]oxy}-1-phenylethanamine] | 25 nM | 111 nM |
| NC[C@H]1C[C@H](Oc2ccc3ncc(-c4cc5ccccc5o4)n3n2)C1 [Example 20, 1-(trans-3-{[3-(1-Benzofuran-2-yl)imidazo[1,2-b]pyridazin-6-yl]oxy}cyclobutyl)-methanamine] | 4 nM | 6 nM |
| N[C@H]1C[C@H](COc2ccc3ncc(-c4cc5ccccc5o4)n3n2)C1 [Example 22, trans-3-({[3-(1-Benzofuran-2-yl)imidazo[1,2-b]pyridazin-6-yl]oxy}methyl)cyclobutanamine] | 6 nM | 17 nM |
| N[C@H]1CCC[C@@H]1Oc1ccc2ncc(-c3cc4ccccc4o3)n2n1 [Example 24, (1S,2S)-2-{[3-(1-Benzofuran-2-yl)imidazo[1,2-b]pyridazin-6-yl]oxy}cyclopentan-amine] | 10 nM | 19 nM |
| N[C@H]1CCC[C@H]1Oc1ccc2ncc(-c3cc4ccccc4o3)n2n1 [Example 25, (1S,2R)-2-{[3-(1-Benzofuran-2-yl)imidazo[1,2-b]pyridazin-6-yl]oxy}cyclopentan-amine salt with formic acid] | 7 nM | 22 nM |
| NCC(Cc1ccccc1)Oc1ccc2ncc(-c3cc4ccccc4o3)n2n1 (centres unmarked) [Example 26, 2-{[3-(1-Benzofuran-2-yl)imidazo[1,2-b]pyridazin-6-yl]oxy}-3-phenylpropan-1-amine salt with formic acid] | 15 nM | 25 nM |
| NCC(Oc1ccc2ncc(-c3cc4ccccc4o3)n2n1)C1CC1 (centres unmarked) [Example 30, 2-{[3-(1-Benzofuran-2-yl)imidazo[1,2-b]pyridazin-6-yl]oxy}-2-cyclopropylethan-amine] | 41 nM | 75 nM |
| NCC(CN)Oc1ccc2ncc(-c3cc4ccccc4o3)n2n1 [Example 34, 2-{[3-(1-Benzofuran-2-yl)imidazo[1,2-b]pyridazin-6-yl]oxy}propane-1,3-diamine] | 39 nM | 92 nM |
| NCC(Oc1ccc2ncc(-c3cc4ccccc4o3)n2n1)C1CCOC1 (centres unmarked) [Example 35, 2-{[3-(1-Benzofuran-2-yl)imidazo[1,2-b]pyridazin-6-yl]oxy}-2-(tetrahydrofuran-3-yl)ethanamine] | 32 nM | 52 nM |
| N[C@H]1C[C@H](Oc2ccc3ncc(-c4cc5c(F)cccc5o4)n3n2)C1 [Example 36, trans-3-{[3-(4-Fluoro-1-benzofuran-2-yl)imidazo[1,2-b]pyridazin-6-yl]oxy}-cyclobutanamine] | 1 nM | 2 nM |
| N[C@H]1C[C@H](Oc2ccc3ncc(-c4cc5cc(Cl)ccc5o4)n3n2)C1 [Example 37, trans-3-{[3-(5-Chloro-1-benzofuran-2-yl)imidazo[1,2-b]pyridazin-6-yl]oxy}-cyclobutanamine] | 4 nM | 5 nM |
| COc1ccc2oc(-c3cnc4ccc(O[C@H]5C[C@H](N)C5)nn34)cc2c1 [Example 38, trans-3-{[3-(5-Methoxy-1-benzofuran-2-yl)imidazo[1,2-b]pyridazin-6-yl]oxy}-cyclobutanamine] | 3 nM | 6 nM |
| N[C@H]1C[C@H](Oc2ccc3ncc(-c4cc5cc(F)ccc5o4)n3n2)C1 [Example 39, trans-3-{[3-(5-Fluoro-1-benzofuran-2-yl)imidazo[1,2-b]pyridazin-6-yl]oxy}-cyclobutanamine] | 3 nM | 6 nM |
| CC(CN)COc1ccc2ncc(-c3cc4ccccc4o3)n2n1 (centres unmarked) [Example 40, 3-{[3-(1-Benzofuran-2-yl)imidazo[1,2-b]pyridazin-6-yl]oxy}-2-methylpropan-1-amine] | 9 nM | 18 nM |
| COc1cccc2oc(-c3cnc4ccc(OCC(N)C5CC5)nn34)cc12 (centres unmarked) [Example 41, 1-Cyclopropyl-2-{[3-(4-methoxy-1-benzofuran-2-yl)imidazo[1,2-b]pyridazin-6-yl]oxy}ethanamine] | 12 nM | 27 nM |
| C[C@@H](N)COc1ccc2ncc(-c3cc4ccccc4o3)n2n1 [Example 42, (2R)-1-{[3-(1-Benzofuran-2-yl)imidazo[1,2-b]pyridazin-6-yl]oxy}propan-2-amine] | 15 nM | 43 nM |
| C[C@@H](N)COc1ccc2ncc(-c3cc4cc(Cl)ccc4o3)n2n1 [Example 43, (2R)-1-{[3-(5-Chloro-1-benzofuran-2-yl)imidazo[1,2-b]pyridazin-6-yl]oxy}-propan-2-amine] | 33 nM | 62 nM |
| NCC1(COc2ccc3ncc(-c4cc5ccccc5o4)n3n2)COC1 [Example 44, 1-[3-({[3-(1-Benzofuran-2-yl)imidazo[1,2-b]pyridazin-6-yl]oxy}methyl)oxetan-3-yl]methanamine] | 52 nM | 63 nM |
